{"source": "ChEMBL document CHEMBL6153140", "about": "“Pestones A and B from a Fungus Pestalotiopsis sp. Bound to Mutant p53 and Changed Its Conformation” (J Nat Prod, 2025)", "key": {"[1]": {"experiment": "Cytotoxicity against human SAOS-2 cells harboring p53 […] mutant incubated for 3 days by MTT assay", "type": "functional, cell-based", "details": "SAOS-2, 72 h"}, "SAOS-2 [2]": {"tested_on": "SAOS-2", "experiment": "Effect on conformation of p53 […] mutant in human SAOS-2 cells at 100 uM incubated for 6 hrs by Hoechst 33342 staining based immunofluorescence analysis", "type": "functional, cell-based"}, "SAOS-2 [3]": {"tested_on": "SAOS-2", "experiment": "Effect on conformation of p53 […] mutant in human SAOS-2 cells at 2 uM incubated for 6 hrs by Hoechst 33342 staining based immunofluorescence analysis", "type": "functional, cell-based"}, "[4]": {"experiment": "Toxicity in male BALB/c Slc-nu/nu mouse assessed as effect on body weight loss administered IT(Intratumoral) every other day and measured after 13 days", "details": "in vivo, 312 h, time 13 day"}, "[5]": {"experiment": "Induction of apoptosis in human SAOS-2 cells harboring p53 […] mutant assessed as viable cells at 4 uM incubated for 24 hrs by Annexin V-FITC/PI staining based flow cytometric analysis (reference value: 94.3%)", "type": "functional", "details": "read-out: Activity"}, "[6]": {"experiment": "Induction of apoptosis in human SAOS-2 cells harboring p53 […] mutant assessed as early apoptotic cells at 4 uM incubated for 24 hrs by Annexin V-FITC/PI staining based flow cytometric analysis (reference value: 4.1%)", "type": "functional"}, "HuCCT-1": {"tested_on": "HuCCT-1", "experiment": "Antitumor activity against human HuCCT-1 cells harboring p53 […] mutant xenografted in male BALB/c Slc-nu/nu mouse model assessed as reduction in tumor volume administered IT(Intratumoral) every other day and measured on day 13 (reference value: 56 to 98 mm3)", "type": "functional", "details": "time 13 day"}, "[7]": {"experiment": "Induction of apoptosis in human SAOS-2 cells harboring p53 […] mutant assessed as late apoptotic cells at 4 uM incubated for 24 hrs by Annexin V-FITC/PI staining based flow cytometric analysis (reference value: 1.2%)", "type": "functional"}, "[8]": {"experiment": "Induction of apoptosis in human SAOS-2 cells harboring p53 […] mutant assessed as fold increase in early apoptotic cells at 4 uM incubated for 24 hrs by Annexin V-FITC/PI staining based flow cytometric analysis", "type": "functional"}, "[9]": {"experiment": "Induction of apoptosis in human SAOS-2 cells harboring p53 […] mutant assessed as fold increase in late apoptotic cells at 4 uM incubated for 24 hrs by Annexin V-FITC/PI staining based flow cytometric analysis", "type": "functional"}, "[10]": {"experiment": "Induction of apoptosis in human SAOS-2 cells harboring p53 […] mutant assessed as necrotic cells at 4 uM incubated for 24 hrs by Annexin V-FITC/PI staining based flow cytometric analysis (reference value: 0.4%)", "type": "functional"}, "SAOS-2 [11]": {"tested_on": "SAOS-2", "experiment": "Binding affinity to p53 […] mutant in human SAOS-2 cells assessed as thermal stabilization at 5 uM at 40 to 43 degreeC incubated for 1 hr by CETSA based Western blot analysis", "type": "cell-based"}}, "note": "pIC50: −log10 of the molar value. Active and inactive are the calls of the source. No cut-off for these calls is given here."}
{"compound": "CC(C)=C[C@@H](O)[C@]12O[C@H]1[C@H](O)C1=C(C2=O)C2C(C)OC1[C@]13C(=O)[C@@]4([C@H](O)C=C(C)C)O[C@H]4[C@H](O)C1=CO[C@@H](C)[C@H]23", "note": "(some centres not stated)", "values": [{"measurement": "pIC50", "setting": "[1]", "result": "< 4.70"}]}
{"compound": "C/C=C/C1=C(CO)C(=O)[C@@H]2O[C@]2([C@H](O)C=C(C)C)C1=O", "values": [{"measurement": "pIC50", "setting": "[1]", "result": 6.04}]}
{"compound": "C/C=C/C1=C(CO)[C@@H](O)[C@@H]2O[C@]2([C@H](O)C=C(C)C)C1=O", "values": [{"measurement": "pIC50", "setting": "[1]", "result": "< 4.70"}, {"measurement": "Activity", "setting": "SAOS-2 [2]", "result": "inactive"}]}
{"compound": "CC(C)=C[C@@H](O)[C@]12O[C@H]1C(=O)C1=C(C2=O)C2[C@H](C)OC1[C@]13C(=O)[C@@]4([C@H](O)C=C(C)C)O[C@H]4C(=O)C1=CO[C@@H](C)[C@H]23", "note": "(some centres not stated)", "values": [{"measurement": "pIC50", "setting": "[1]", "result": 5.96}, {"measurement": "Activity", "setting": "SAOS-2 [3]", "result": "Active"}]}
{"compound": "CC(C)=C[C@@H](O)[C@]12O[C@H]1C(=O)C1=C(C2=O)C2[C@@H]3[C@@H](C)OC=C4C(=O)[C@@H]5O[C@]5([C@H](O)C=C(C)C)C(=O)[C@]43C1O[C@@H]2C", "note": "(some centres not stated)", "values": [{"measurement": "Activity", "setting": "[4]", "result": "Non-toxic"}, {"measurement": "pIC50", "setting": "[1]", "result": 6.00}, {"measurement": "viability at 4 µM", "setting": "[5]", "result": 80, "unit": "%"}, {"measurement": "Activity", "setting": "[6]", "result": 13.6, "unit": "%"}, {"measurement": "Activity", "setting": "HuCCT-1", "result": 140, "unit": "mm3"}, {"measurement": "Activity", "setting": "[7]", "result": 5.7, "unit": "%"}, {"measurement": "fold change (FC)", "setting": "[8]", "result": 3.3}, {"measurement": "fold change (FC)", "setting": "[9]", "result": 4.8}, {"measurement": "Activity", "setting": "SAOS-2 [3]", "result": "Active"}, {"measurement": "Activity", "setting": "[10]", "result": 0.7, "unit": "%"}, {"measurement": "Activity", "setting": "SAOS-2 [11]", "result": "Active"}]}
